# Values of other authors, collected in patent US10538548B2, “Material mixture containing rubusoside or alpha glycosylrubusoside, for enhancing sweet taste” (SYMRISE AG, priority 2014, dated 2020).
# Settings: pure rubusoside
compound,measurement,value
"C=C1C[C@@]23CC[C@H]4[C@@](C)(CCC[C@@]4(C)C(=O)O[C@@H]4O[C@H](CO)[C@@H](O)[C@H](O)[C@H]4O)[C@@H]2CC[C@]1(O[C@@H]1O[C@H](CO)[C@@H](O)[C@H](O)[C@H]1O)C3 [rubusoside, Rubusoside]",sweetening power relative to sugar,200 times
